Assay results: patent US12252491B2, “IL-17A inhibitors” (Eli Lilly and Company, priority 2019, dated 2025)

Columns and labels:
[1] = molecular target: binding of IL-17A to IL-17RA (Homo sapiens (Human), UniProt Q16552); test: IL-17A:IL-17RA AlphaLISA
Method: The ability of compounds to inhibit the binding of IL-17A to IL-17RA may be assessed with an AlphaLISA assay.
To assay the compounds of the present invention, 0.1 μL of a test compound stock is serially diluted in 100% DMSO using an Echo Acoustic Liquid Handler (LabCyte Sunnydale, Calif.) in 384 well proxiplates (Perkin Elmer). A 5 μL addition of IL-17RA-FLAG is added to the plate, followed by the addition of 5 μL Avi-tagged IL-17A-His to provide a final concentration of 2 nM of IL-17RA and IL-17A, respectively. The assay is carried out in 20 mM HEPES, 150 mM NaCl, 0.05% Tween-20, 0.1% Human Serum Albumin, pH 7 and 1% DMSO. The assay mixture is allowed to incubate at room temperature for 2 hours. After the 2 hour incubation, 10 μL of streptavidin donor beads (20 μg/ml final) and anti-FLAG acceptor beads (20 μg/ml final) are added to the plate. The plate is allowed to incubate for one hour at room temp, then is read on the Envision (Perkin Elmer). The relative IC50 values are determined using a four parameter fit as shown in equation 1. In this equation, bottom and top are defined as the plateaus of the curve, and H is the Hill Slope.

human IL-17A = human IL-17A (Homo sapiens (Human), UniProt Q16552)
Method: The ability of compounds to neutralize the activity of IL-17A may be assessed with a cell-based human IL-17A neutralization assay conducted essentially as follows. […] After 48 hours, CXCL1/GROα in the culture media is measured using a commercial ELISA kit (#DY275; R&D Systems). Medium alone treatments are included in every experiment to assess the basal levels of CXCL1/GROα. Percent inhibition is calculated using the following equation:

[2] = Mouse oral bioavailability; format: in vivo; conditions: whole blood (dried blood spot), male mice, IV bolus 1 mg/kg vs oral 3 mg/kg, 8-hour AUC, read-out: % F (mouse)
Method: Oral bioavailability (% F) for compounds of the invention may be determined in mice by determination of an 8-hour blood plasma AUC (nM*hr) following intravenous and oral administration performed essentially as follows. Male mice (n=3) are administered compound via intravenous (IV) bolus (1 mg/kg) or orally (3 mg/kg). For intravenous administration, a vehicle of 20% w/v capsitol in NaPO4 buffer (25 mM) adjusted to pH 2 in a volume of 5 mL/kg is used. For oral administration, a vehicle of HEC/P80/AF/PW (probe sonicated to afford a homogeneous suspension) in a volume of 10 mL/kg is used. Blood is sampled by saphenous bleeding using K2 EDTA as anticoagulant. Approximately 20 μL of blood (or enough for 1 spot) is collected via a capillary tube and transferred to a card as a dry blood spot. Cards are allowed to dry for at least 2 hours before shipping for analysis. Blood concentration of compounds for each mouse is measured by liquid chromatography/tandem mass spectrometry at time points of 0.08 (IV only), 0.25, 0.5, 0.75, 2, 4, and 8 hours. Oral bioavailability (% F) is determined via the following equation: [% F=(AUC/Dose)PO/(AUC/Dose)IV].

Chain of binding of IL-17A to IL-17RA (Q16552 other isoform, or with tags, fused parts or gaps): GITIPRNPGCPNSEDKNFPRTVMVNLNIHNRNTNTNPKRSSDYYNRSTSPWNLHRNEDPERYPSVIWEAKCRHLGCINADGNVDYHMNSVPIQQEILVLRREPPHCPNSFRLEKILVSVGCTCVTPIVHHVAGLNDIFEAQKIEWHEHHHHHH
Chain of human IL-17A (Q16552 20-155): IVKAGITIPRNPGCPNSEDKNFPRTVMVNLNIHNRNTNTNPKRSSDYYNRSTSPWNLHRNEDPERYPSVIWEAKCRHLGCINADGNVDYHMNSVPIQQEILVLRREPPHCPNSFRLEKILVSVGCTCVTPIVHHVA

Question: Which IC50 [1] does the source give for `Cc1nonc1C(=O)N[C@H](c1cn2ncc(CN3C[C@@H](C(F)(F)F)NC3=O)cc2n1)C1CCC(F)(F)CC1` [Example 6, N—[(S)-(4,4-Difluorocyclohexyl)-[7-[[(4S)-2-oxo-4-(trifluoromethyl)imidazolidin-1-yl]methyl]imidazo[1,2-b]pyridazin-2-yl]methyl]-4-methyl-1,2,5-oxadiazole-3-carboxamide] here?
Answer: Its IC50 is less than 9.45 nM.

Question: What about the IC50 (human IL-17A) of the same compound?
Answer: The IC50 was 94.2 nM.

Question: What about the bioavailability [2] of the same compound?
Answer: The bioavailability was 75%.

Question: With `CCc1nocc1C(=O)N[C@H](c1cn2ncc(CN3C[C@@H](C(F)(F)F)NC3=O)cc2n1)C1CCC(F)(F)CC1` [Example 2, N—[(S)-(4,4-Difluorocyclohexyl)-[7-[[(4S)-2-oxo-4-(trifluoromethyl)imidazolidin-1-yl]methyl]imidazo[1,2-b]pyridazin-2-yl]methyl]-3-ethyl-isoxazole-4-carboxamide] as the compound, how does the IC50 [1] read?
Answer: Its IC50 is 15.2 ± 2.5 nM.

Question: And the IC50 (human IL-17A)?
Answer: The IC50 was 53.3 ± 26.4 nM.

Question: And the bioavailability [2]?
Answer: The bioavailability was 28%.

Question: Which IC50 [1] does the source give for `O=C(N[C@H](c1cn2ncc(CN3C[C@@H](C(F)(F)F)NC3=O)cc2n1)C1CCC(F)(F)CC1)c1conc1C1CC1` [Example 1, 3-Cyclopropyl-N—[(S)-(4,4-difluorocyclohexyl)-[7-[[(4S)-2-oxo-4-(trifluoromethyl)imidazolidin-1-yl]methyl]imidazo[1,2-b]pyridazin-2-yl]methyl]isoxazole-4-carboxamide] here?
Answer: The IC50 was 15.7 ± 7 nM.

Question: What about the IC50 (human IL-17A) of the same compound?
Answer: Its IC50 is 51.6 ± 23.5 nM.

Question: What about the bioavailability [2] of the same compound?
Answer: Its bioavailability is 34%.

Question: For `O=C(N[C@H](c1cn2ncc(CN3C[C@@H](C(F)(F)F)NC3=O)cc2n1)C1CCC(F)(F)CC1)c1conc1C(F)F` [Example 4, N—[(S)-(4,4-Difluorocyclohexyl)-[7-[[(4S)-2-oxo-4-(trifluoromethyl)imidazolidin-1-yl]methyl]imidazo[1,2-b]pyridazin-2-yl]methyl]-3-(difluoromethyl)isoxazole-4-carboxamide], which IC50 [1] is on record?
Answer: The IC50 was 13 ± 2 nM.

Question: What about the IC50 (human IL-17A) of the same compound?
Answer: The IC50 was 93.7 nM.

Question: And the bioavailability [2]?
Answer: Its bioavailability is 59%.
